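Five concentrations, 48 hours, 96-well plates. GI50 marks 50% less growth. TGI is the concentration that stops growth completely.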
Columns and labels:
Assay in all cases: growth of human tumour cells (NCI), 48 h
MOLT-4 leukemia = tested on: MOLT-4 leukemia
SN12C renal = tested on: SN12C renal
SF-295 CNS = tested on: SF-295 CNS
NCI-H460 lung = tested on: NCI-H460 lung
ACHN renal = tested on: ACHN renal
SR leukemia = tested on: SR leukemia
KM12 colon = tested on: KM12 colon
SF-268 CNS = tested on: SF-268 CNS
HOP-92 NSCLC = tested on: HOP-92 NSCLC
BT-549 breast = tested on: BT-549 breast

Row | SMILES | TGI (MOLT-4 leukemia) [µM] | TGI (SN12C renal) [µM] | TGI (SF-295 CNS) [µM] | TGI (NCI-H460 lung) [µM] | TGI (ACHN renal) [µM] | TGI (SR leukemia) [µM] | TGI (KM12 colon) [µM] | TGI (SF-268 CNS) [µM] | TGI (HOP-92 NSCLC) [µM] | GI50 (MOLT-4 leukemia) [µM] | GI50 (SN12C renal) [µM] | GI50 (SF-295 CNS) [µM] | GI50 (NCI-H460 lung) [µM] | GI50 (ACHN renal) [µM] | GI50 (SR leukemia) [µM] | GI50 (KM12 colon) [µM] | GI50 (SF-268 CNS) [µM] | GI50 (HOP-92 NSCLC) [µM] | GI50 (BT-549 breast) [µM] | TGI (BT-549 breast) [µM]
1 | O=C(NO)C(=O)Nc1ccc(Cl)cc1[N+](=O)[O-] | > 100 | > 100 | > 100 | > 100 | > 100 | > 100 | > 100 | > 100 | > 100 |  |  |  |  |  |  |  |  |  |  | 
2 | CCC(C(=O)[O-])C(=O)[O-].CCC(C(=O)[O-])C(=O)[O-].N.N.NCCCCCCN.[Pt+4].[Pt+4] | 2.94 | 17.1 | 50 | 18.7 | 13.4 | 35.4 | 16.8 | 24 | 3.87 | 1.18 | 8.66 | 23.2 | 7.99 | 6.77 | 6.11 | 8.83 | 11.2 | 1.24 |  | 
3 | COc1ccc(-c2ccc(/C=N/n3c(C)nn(CN4CCN(C)CC4)c3=S)o2)c([N+](=O)[O-])c1 | 61.3 | > 100 | 48.2 | > 100 | > 100 |  | 42.9 | > 100 |  | 20.5 | > 100 | 18.3 | 29.3 | 69.4 |  | 17.7 | 28.2 |  | > 100 | > 100
4 | CC1=C(c2cc(C(=O)Nc3cccc(C(F)(F)F)c3)ncn2)Sc2ccccc2N1 | > 100 | > 100 | > 100 | > 100 | > 100 | > 100 | > 100 | > 100 | > 100 |  |  |  |  |  |  |  |  |  |  | 
5 | OC(c1ccccn1)C1CNc2ccccc21 (configuration not stated) | > 100 | > 100 | > 100 | > 100 | > 100 |  | > 100 | > 100 | > 100 |  |  |  |  |  |  |  |  |  |  | 
6 | Cc1nc(Nc2ccc([N+](=O)[O-])cc2)sc1C(/C=C/c1ccc(N(C)C)cc1)=N/NC(=O)c1ccccc1 | > 100 | > 100 | > 100 | > 100 | > 100 | > 100 | > 100 | > 100 | 52.7 |  |  |  |  |  |  |  |  |  |  | 
7 | c1ccc(COCC2OC3c4ccccc4COC3C2OCc2ccccc2)cc1 (configuration not stated) | > 100 | > 100 | > 100 | > 100 | > 100 | > 100 | > 100 |  | 87.1 |  |  |  |  |  |  |  |  |  |  | 
8 | CC(=O)NNc1nc(C)c(C(/C=C/c2ccc(Cl)cc2)=N/NC(=O)C[N+](C)(C)C)s1 | > 100 |  | > 100 | > 100 | > 100 |  | > 100 | > 100 | > 100 |  |  |  |  |  |  |  |  |  |  | 
9 | O=C(CCCCCCSc1nc(-c2ccc(Cl)cc2)cc(-c2ccc(Cl)cc2)n1)NO | > 50 | 6.24 | 9.84 | 5.93 | 3.59 |  | > 50 | 7.49 | 8.39 | 1.5 | 1.6 | 2.34 | 1.41 | 1.21 |  | 2.02 | 1.7 | 1.61 | 1.92 | 36.2
10 | COC(=O)C(Cc1nc2ccc(Cl)cc2[nH]c1=O)/C(=N/NC(N)=O)C(=O)Nc1ccc(Cl)cc1 (configuration not stated) | > 100 | > 100 | > 100 | > 100 | > 100 | > 100 | > 100 | > 100 | > 100 |  |  |  |  |  |  |  |  |  |  | 
11 | N#CC1(C=O)c2ccccc2C=CN1C(=O)c1ccccc1 (configuration not stated) | 44.9 | > 100 |  | > 100 | > 100 | 66.5 | > 100 | > 100 | 65.9 |  |  |  |  |  |  |  |  |  |  | 
12 | Cn1c2c(c3ccccc31)CCN(CCCCN1CCN(c3cccc(Cl)c3)CC1)C2=O | 31.6 | 25.8 | 34 | 28 | 37.6 |  |  | 49.9 | 34.7 |  |  |  |  |  |  |  |  |  |  | 
13 | CCOC(=O)c1cc2c(n1Cc1ccccc1)-c1oncc1CC2 | 44.6 | 55.8 | 11.1 | 11.4 | 89 | 15.5 | 27.6 | 79 | 42.7 | 4.73 | 10 | 2.89 | 3.08 | 5.84 | 2.56 | 3.49 | 6.89 | 5.24 |  | 
14 | N#Cc1ccc(C(c2ccc(C#N)cc2)n2cncn2)cc1 | > 5000 | > 5000 | > 5000 | > 5000 | > 5000 | > 5000 | > 5000 | > 5000 |  | > 5000 | > 5000 | 182 | > 5000 | > 5000 | > 5000 | > 5000 | > 5000 |  |  | > 5000
15 | O=C([O-])c1ccc(C(=O)[O-])cc1.O=C([O-])c1ccc(C(=O)[O-])cc1.[Mo+2].[Mo+2] | > 100 | > 100 | > 100 | > 100 | > 100 | > 100 | > 100 | > 100 | > 100 | > 100 | > 100 | > 100 | > 100 | > 100 | > 100 | > 100 | > 100 | 99.8 |  | 
16 | CNCCCNc1nc2ccccc2c2c(=O)c3cc(Cl)ccc3sc12 |  | 2.93 | 3.27 | 3.06 | 2.89 |  | 2.89 | 3.01 | 2.81 |  | 1.54 | 1.74 | 1.61 | 1.51 |  | 1.48 | 1.5 | 0.935 | 13.3 | 40.5
17 | CCOC(=O)NC(=O)c1cn(CCN2CCN(C(=O)CCCCCCCCCCNc3ncnc4nc[nH]c34)CC2)c(=O)[nH]c1=O | > 100 | > 100 | > 100 | > 100 | > 100 | > 100 | > 100 | > 100 | > 100 |  |  |  |  |  |  |  |  |  |  | 
18 | COc1ccc(Cn2cc3c(c2-c2cc(OC)c(OC)c(OC)c2)CCc2cnoc2-3)cc1[N+](=O)[O-] | > 100 | > 100 | 2.09 | > 28.8 | > 100 |  | > 93.7 | > 100 | 60.6 | 1.4 | 4.11 | 0.328 | 0.721 | 2.88 |  | 0.583 | 3.79 | 1.07 | 7.9 | > 100

Reference: PubChem BioAssay (NCI)
